Results as given in the NIST ThermoML archive (doi:10.1016/j.jct.2006.06.008).
± gives the expanded uncertainty stated by the source.

Assay: xn = mol fraction of the nth substance listed
Settings: 101 kPa, Liquid

C1CCCCC1 [cyclohexane] + CCCCO
Settings | mass density, 293.15 K [kg/m3] | mass density, 298.15 K [kg/m3] | mass density, 303.15 K [kg/m3] | speed of sound, 293.15 K [m/s] | speed of sound, 298.15 K [m/s] | speed of sound, 303.15 K [m/s] | viscosity, 293.15 K [mPa·s] | viscosity, 298.15 K [mPa·s] | viscosity, 303.15 K [mPa·s]
x1 = 0.0491 | 807.27 ± 0.43 | 803.41 ± 0.44 | 799.52 ± 0.44 | 1254 ± 2 | 1237 ± 2 | 1220 ± 2 | 2.777 ± 0.064 | 2.437 ± 0.057 | 2.147 ± 0.051
x1 = 0.0988 | 804.96 ± 0.44 | 801.04 ± 0.44 | 797.08 ± 0.45 | 1252 ± 2 | 1234 ± 2 | 1217 ± 2 | 2.593 ± 0.06 | 2.278 ± 0.053 | 2.009 ± 0.047
x1 = 0.2003 | 800.76 ± 0.44 | 796.72 ± 0.45 | 792.63 ± 0.45 | 1249 ± 2 | 1230 ± 2 | 1211 ± 2 | 2.254 ± 0.053 | 1.984 ± 0.047 | 1.756 ± 0.042
x1 = 0.3081 | 796.54 ± 0.45 | 792.37 ± 0.46 | 788.15 ± 0.46 | 1246 ± 2 | 1227 ± 2 | 1207 ± 2 | 1.937 ± 0.046 | 1.712 ± 0.041 | 1.514 ± 0.036
x1 = 0.4082 | 792.86 ± 0.45 | 788.57 ± 0.46 | 784.23 ± 0.47 | 1245 ± 2 | 1224 ± 2 | 1204 ± 2 | 1.684 ± 0.04 | 1.492 ± 0.036 | 1.33 ± 0.032
x1 = 0.5125 | 789.41 ± 0.46 | 785.01 ± 0.47 | 780.55 ± 0.47 | 1245 ± 2 | 1224 ± 2 | 1202 ± 2 | 1.449 ± 0.035 | 1.293 ± 0.032 | 1.16 ± 0.029
x1 = 0.6157 | 786.28 ± 0.47 | 781.77 ± 0.47 | 777.21 ± 0.48 | 1247 ± 2 | 1225 ± 2 | 1202 ± 2 | 1.257 ± 0.031 | 1.13 ± 0.028 | 1.023 ± 0.025
x1 = 0.7086 | 783.78 ± 0.47 | 779.19 ± 0.48 | 774.55 ± 0.48 | 1250 ± 2 | 1227 ± 2 | 1204 ± 2 | 1.121 ± 0.028 | 1.014 ± 0.025 | 0.928 ± 0.023
x1 = 0.8022 | 781.56 ± 0.47 | 776.91 ± 0.48 | 772.21 ± 0.49 | 1255 ± 2 | 1231 ± 2 | 1208 ± 2 | 1.047 ± 0.026 | 0.955 ± 0.024 | 0.874 ± 0.022
x1 = 0.9029 | 779.62 ± 0.48 | 774.9 ± 0.48 | 770.14 ± 0.49 | 1263 ± 2 | 1239 ± 2 | 1215 ± 2 | 0.995 ± 0.025 | 0.904 ± 0.023 | 0.829 ± 0.021
x1 = 0.9519 | 778.88 ± 0.48 | 774.15 ± 0.48 | 769.37 ± 0.49 | 1269 ± 2 | 1244 ± 2 | 1220 ± 2 | 0.972 ± 0.024 | 0.889 ± 0.023 | 0.817 ± 0.021
x1 = 1 | 778.62 ± 0.48 | 773.92 ± 0.48 | 769.19 ± 0.49 | 1279 ± 2 | 1254 ± 2 | 1230 ± 2 | 0.968 ± 0.024 | 0.887 ± 0.022 | 0.816 ± 0.021
